Tests used:
[1] = system: TTR; assay: TTR editing in primary human hepatocytes transfected with Spy Cas9 mRNA and dgRNAs (Table 9); type: cell-based; settings: dgRNA co-transfected with Spy Cas9 mRNA (SEQ ID NO:2)
Method in brief: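 PHH sequentially lipofected with Spy Cas9 mRNA (100 ng), then crRNA plus tracrRNA (25 nM each) dual-guide lipoplex. Cells harvested 24, 48 or 72 h post-transfection; TTR target amplicons sequenced on Illumina MiSeq, editing given as percent reads with indels or substitutions over total reads.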

[2] = system: TTR; assay: TTR editing in HEK293_Cas9 cells transfected with dgRNAs (Table 4); type: cell-based, human; settings: HEK293_Cas9 cells (constitutively express Spy Cas9) transfected with dgRNAs
Method in brief: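 Spy Cas9-expressing HEK293 cells were transfected by lipofection with crRNA (25 nM) plus trRNA (25 nM) and harvested at 24, 48 or 72 h. The target site was PCR-amplified and sequenced on MiSeq. Percent editing is reads with indels or substitutions over total reads.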

[3] = system: TTR; assay: TTR editing in primary human hepatocytes electroporated with Spy Cas9 protein loaded with dgRNAs (Table 7); type: cell-based; settings: dgRNA electroporated with Spy Cas9 protein (RNP)
Method in brief: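 Primary human or cynomolgus hepatocytes electroporated (Lonza P3 buffer, program EX-147) with Spy Cas9 RNP carrying pre-annealed crRNA/trRNA dual guides. Genomic DNA harvested at 24, 48 or 72 h; target amplicons sequenced by Illumina MiSeq. Percent editing = reads with indels or substitutions over total reads.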

[4] = system: TTR; assay: TTR editing in HepG2 cells transfected with Spy Cas9 mRNA and dgRNAs (Table 6); type: cell-based, human; settings: HepG2 cells co-transfected with Spy Cas9 mRNA (SEQ ID NO:2) and dgRNAs
Method in brief: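 HepG2 cells were transfected sequentially by lipofection with Spy Cas9 mRNA (100 ng), then crRNA plus tracer RNA (25 nM each), and harvested at 24, 48 or 72 h. Editing was measured by amplicon NGS at the TTR target site as the fraction of reads with indels or substitutions.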

CCAGUCCAGCAAGGCAGAGG (tested as dual guide RNA, chemistry not given here) [CR003337]
Avg % Deletion [1]: 1.23%
Avg % Edit [1]: 19.30%
Avg % Insert [1]: 18.10%
Avg % Deletion [2]: 37.48%
Avg % Edit [2]: 42.72%
Avg % Insert [2]: 5.24%
Avg % Deletion [3]: 1.30%
Avg % Edit [3]: 54.27%
Avg % Insert [3]: 53.23%
Avg % Deletion [4]: 2.65%
Avg % Edit [4]: 61.93%
Avg % Insert [4]: 59.28%

CCCAGAGGCAAAUGGCUCCC (tested as dual guide RNA, chemistry not given here) [CR003355]
Avg % Deletion [1]: 1.63%
Avg % Edit [1]: 12.07%
Avg % Insert [1]: 10.47%
Avg % Deletion [2]: 23.61%
Avg % Edit [2]: 30.60%
Avg % Insert [2]: 6.99%
Avg % Deletion [3]: 1.97%
Avg % Edit [3]: 12.53%
Avg % Insert [3]: 10.60%
Avg % Deletion [4]: 3.44%
Avg % Edit [4]: 15.80%
Avg % Insert [4]: 12.36%

CCCCUACUCCUAUUCCACCA (tested as dual guide RNA, chemistry not given here) [CR003385]
Avg % Deletion [1]: 3.60%
Avg % Edit [1]: 36.77%
Avg % Insert [1]: 33.23%
Avg % Deletion [2]: 18.82%
Avg % Edit [2]: 26.19%
Avg % Insert [2]: 7.36%
Avg % Deletion [3]: 2.53%
Avg % Edit [3]: 40.87%
Avg % Insert [3]: 38.43%
Avg % Deletion [4]: 7.62%
Avg % Edit [4]: 53.94%
Avg % Insert [4]: 46.32%

CCGUGGUGGAAUAGGAGUAG (tested as dual guide RNA, chemistry not given here) [CR003386]
Avg % Deletion [1]: 0.13%
Avg % Edit [1]: 8.27%
Avg % Insert [1]: 8.20%
Avg % Deletion [2]: 30.18%
Avg % Edit [2]: 33.12%
Avg % Insert [2]: 2.94%
Avg % Deletion [3]: 0.47%
Avg % Edit [3]: 4.90%
Avg % Insert [3]: 4.47%
Avg % Deletion [4]: 0.56%
Avg % Edit [4]: 2.71%
Avg % Insert [4]: 2.15%

CCUCCUCUGCCUUGCUGGAC (tested as dual guide RNA, chemistry not given here) [CR003336]
Avg % Deletion [1]: 0.80%
Avg % Edit [1]: 16.93%
Avg % Insert [1]: 16.20%
Avg % Deletion [2]: 25.78%
Avg % Edit [2]: 29.09%
Avg % Insert [2]: 3.31%
Avg % Deletion [3]: 0.70%
Avg % Edit [3]: 39.17%
Avg % Insert [3]: 38.43%
Avg % Deletion [4]: 0.83%
Avg % Edit [4]: 31.31%
Avg % Insert [4]: 30.48%

CCUCUGCAUGCUCAUGGAAU (tested as dual guide RNA, chemistry not given here) [CR003370]
Avg % Deletion [1]: 0.50%
Avg % Edit [1]: 2.83%
Avg % Insert [1]: 2.33%
Avg % Deletion [2]: 29.73%
Avg % Edit [2]: 34.22%
Avg % Insert [2]: 4.49%
Avg % Deletion [3]: 0.90%
Avg % Edit [3]: 15.27%
Avg % Insert [3]: 14.43%
Avg % Deletion [4]: 3.62%
Avg % Edit [4]: 28.51%
Avg % Insert [4]: 24.88%

CUCUGCAUGCUCAUGGAAUG (tested as dual guide RNA, chemistry not given here) [CR003369]
Avg % Deletion [1]: 0.70%
Avg % Edit [1]: 1.60%
Avg % Insert [1]: 0.90%
Avg % Deletion [2]: 24.04%
Avg % Edit [2]: 33.10%
Avg % Insert [2]: 9.06%
Avg % Deletion [3]: 0.40%
Avg % Edit [3]: 3.67%
Avg % Insert [3]: 3.30%
Avg % Deletion [4]: 5.51%
Avg % Edit [4]: 22.62%
Avg % Insert [4]: 17.11%

Reference: patent publication US11795460B2, “Compositions and methods for TTR gene editing and treating ATTR amyloidosis” (Intellia Therapeutics, Inc., priority 2017, dated 2023)
